These results are taken from BindingDB's records for doi:10.1016/j.bmcl.2005.03.003 (Gsk, 2005).

Molecules are shown by their SMILES.

For this experiment, the target named is T1, Phenylalanine--tRNA ligase alpha/beta subunit (Staphylococcus aureus, UniProt P68849+Q9AGR3).
T1 sequence (P68849 whole entry): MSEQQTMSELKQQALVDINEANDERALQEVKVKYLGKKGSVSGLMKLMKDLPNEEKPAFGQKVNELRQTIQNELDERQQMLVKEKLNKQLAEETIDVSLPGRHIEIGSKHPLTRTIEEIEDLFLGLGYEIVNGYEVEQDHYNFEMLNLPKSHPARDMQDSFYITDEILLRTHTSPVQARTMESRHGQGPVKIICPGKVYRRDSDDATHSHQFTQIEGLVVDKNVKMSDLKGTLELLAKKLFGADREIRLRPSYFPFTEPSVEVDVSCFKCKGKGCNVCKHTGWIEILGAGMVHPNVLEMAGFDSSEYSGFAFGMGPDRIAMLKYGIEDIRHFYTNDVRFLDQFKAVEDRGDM
T1 sequence (Q9AGR3 whole entry): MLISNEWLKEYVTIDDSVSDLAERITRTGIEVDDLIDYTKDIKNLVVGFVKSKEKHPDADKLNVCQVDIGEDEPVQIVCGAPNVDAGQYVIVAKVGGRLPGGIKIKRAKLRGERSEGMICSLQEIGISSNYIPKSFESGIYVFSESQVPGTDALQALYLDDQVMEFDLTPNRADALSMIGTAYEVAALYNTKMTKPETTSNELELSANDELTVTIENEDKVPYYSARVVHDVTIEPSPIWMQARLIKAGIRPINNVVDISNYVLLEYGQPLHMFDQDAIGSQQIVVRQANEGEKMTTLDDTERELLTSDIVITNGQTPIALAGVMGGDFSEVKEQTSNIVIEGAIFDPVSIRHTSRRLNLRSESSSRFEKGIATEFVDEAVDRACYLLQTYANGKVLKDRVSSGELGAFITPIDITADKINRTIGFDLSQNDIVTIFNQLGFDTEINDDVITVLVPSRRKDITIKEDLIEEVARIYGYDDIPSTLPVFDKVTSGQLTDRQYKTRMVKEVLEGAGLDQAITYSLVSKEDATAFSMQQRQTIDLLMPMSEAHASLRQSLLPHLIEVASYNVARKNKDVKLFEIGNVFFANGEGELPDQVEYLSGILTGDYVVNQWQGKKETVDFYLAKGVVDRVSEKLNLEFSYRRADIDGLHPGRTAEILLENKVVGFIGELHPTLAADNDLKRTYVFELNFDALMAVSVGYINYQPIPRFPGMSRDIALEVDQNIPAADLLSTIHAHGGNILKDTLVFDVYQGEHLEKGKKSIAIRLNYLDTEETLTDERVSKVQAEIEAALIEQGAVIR
The experiment in a line: Homogeneous Enzyme Assay with SPA Beads. How it is done:
The reactions were performed in […] 384-well Packard Optiplates. After 10 min of incubation, the reaction was stopped by addition of a continuously shaken suspension of YSi SPA beads at pH 2. Under acidic conditions, SPA beads bind tRNA aggregates, while radiolabeled amino acid substrate remains in solution. The beads were allowed to settle for at least 45 min and the plates were counted in a microplate scintillation counter TopCount (Packard).

The term IC50 denotes the concentration that gives 50% inhibition. A lower IC50 goes with greater potency in that assay.

Molecule `OC(CNCc1ccccc1N1CCOCC1)c1cccc(C(F)(F)F)c1` (configuration not stated) [2-({[2-(morpholin-4-yl)phenyl]methyl}amino)-1-[3-(trifluoromethyl)phenyl]ethan-1-ol] yielded an IC50 (pH 7.9, 37 °C) of over 10000 nM.

`O=C(O)CCCOc1ccccc1CNCC(O)c1cc(Br)cs1` (configuration not stated) [4-[2-({[2-(4-bromothiophen-2-yl)-2-hydroxyethyl]amino}methyl)phenoxy]butanoic acid] had an IC50 (pH 2) of 43 nM.
